Reference: PubChem BioAssay AID1963836 (Molecular Pharmacology Branch, DTP, NCI, 2024)

System: 857933-349-R-J2-PDC complex spheroid viability
Test: Anticancer human tumor 857933-349-R-J2-PDC patient-derived colon adenocarcinoma cell line growth inhibition [POLQ]
Conditions: for IC50: curve of first compound; for viability, T/C: stronger effect = lower value
Method in brief: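 Three-cell-type spheroids modelling solid tumor plus stroma served as the readout system; POL inhibitors were tested individually and in combination, concentration ranges set by clinical Cmax where known.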

[1] = second compound 0.0316 µM, first compound 0.0316 µM
[2] = second compound 0.0316 µM, first compound 0.1 µM
[3] = second compound 0.0316 µM, first compound 0.316 µM
[4] = second compound 0.0316 µM, first compound 1 µM
[5] = second compound 0.0316 µM, first compound 3.16 µM
[6] = second compound 0.0316 µM, first compound 10 µM
[7] = second compound 0.1 µM, first compound 0.0316 µM
[8] = second compound 0.1 µM, first compound 0.1 µM
[9] = second compound 0.1 µM, first compound 0.316 µM
[10] = second compound 0.1 µM, first compound 1 µM
[11] = second compound 0.1 µM, first compound 3.16 µM
[12] = second compound 0.1 µM, first compound 10 µM
[13] = second compound 0.316 µM, first compound 0.0316 µM
[14] = second compound 0.316 µM, first compound 0.1 µM
[15] = second compound 0.316 µM, first compound 0.316 µM
[16] = second compound 0.316 µM, first compound 1 µM
[17] = second compound 0.316 µM, first compound 3.16 µM
[18] = second compound 0.316 µM, first compound 10 µM
[19] = second compound 1 µM, first compound 0.0316 µM
[20] = second compound 1 µM, first compound 0.1 µM
[21] = second compound 1 µM, first compound 0.316 µM
[22] = second compound 1 µM, first compound 1 µM
[23] = second compound 1 µM, first compound 3.16 µM
[24] = second compound 1 µM, first compound 10 µM
[25] = second compound 3.16 µM, first compound 0.0316 µM
[26] = second compound 3.16 µM, first compound 0.1 µM
[27] = second compound 3.16 µM, first compound 0.316 µM
[28] = second compound 3.16 µM, first compound 1 µM
[29] = second compound 3.16 µM, first compound 3.16 µM
[30] = second compound 3.16 µM, first compound 10 µM
[31] = second compound 10 µM, first compound 0.0316 µM
[32] = second compound 10 µM, first compound 0.1 µM
[33] = second compound 10 µM, first compound 0.316 µM
[34] = second compound 10 µM, first compound 1 µM
[35] = second compound 10 µM, first compound 3.16 µM
[36] = second compound 10 µM, first compound 10 µM
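Also: spheroids exposed to compounds for seven days before readout.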

For `C#Cc1c(F)ccc2cc(O)cc(-c3ncc4c(N5CC6CCC(C5)N6)nc(OCC56CCCN5CC(F)C6)nc4c3F)c12` (stereo unspecified) + COC1C(OC(N)=O)C(O)C(Oc2ccc3c(O)c(NC(=O)c4ccc(O)c(CC=C(C)C)c4)c(=O)oc3c2C)OC1(C)C, the IC50 (second compound 0.0316 µM) was over 10 µM, the IC50 (second compound 0.1 µM) was over 10 µM and the IC50 (second compound 0.316 µM) was over 10 µM. For the same molecule, the IC50 (second compound 1 µM) was over 10 µM, the IC50 (second compound 3.16 µM) was over 10 µM and the IC50 (second compound 10 µM) was over 10 µM. For the same molecule, the viability, T/C [1] was 106%, the viability, T/C [2] was 94.9% and the viability, T/C [3] was 92.3%. The viability, T/C [4] was 79.2%, the viability, T/C [5] was 70.8% and the viability, T/C [6] was 99.2%. For the same molecule, the viability, T/C [7] was 102%, the viability, T/C [8] was 102% and the viability, T/C [9] was 94%. It also gave a viability, T/C [10] of 80.7%, a viability, T/C [11] of 86.6% and a viability, T/C [12] of 92.2%. The viability, T/C [13] was 98%, the viability, T/C [14] was 96.7% and the viability, T/C [15] was 81.2%. For the same molecule, the viability, T/C [16] was 88.6%, the viability, T/C [17] was 84.9% and the viability, T/C [18] was 78.1%. It also gave a viability, T/C [19] of 114%, a viability, T/C [20] of 95.1% and a viability, T/C [21] of 79.3%. The viability, T/C [22] was 82.3%, the viability, T/C [23] was 95.5% and the viability, T/C [24] was 90.8%. It also gave a viability, T/C [25] of 96.4%, a viability, T/C [26] of 98.6% and a viability, T/C [27] of 96%. It also gave a viability, T/C [28] of 119%, a viability, T/C [29] of 88.1% and a viability, T/C [30] of 94.5%. For the same molecule, the viability, T/C [31] was 98.3%, the viability, T/C [32] was 89.8% and the viability, T/C [33] was 93%. For the same molecule, the viability, T/C [34] was 77.6%, the viability, T/C [35] was 85.4% and the viability, T/C [36] was 104%.
With `C=CC(=O)N1CCN(c2nc(=O)n(-c3c(C)ccnc3C(C)C)c3nc(-c4c(O)cccc4F)c(F)cc23)C(C)C1` (stereo unspecified) + COC1C(OC(N)=O)C(O)C(Oc2ccc3c(O)c(NC(=O)c4ccc(O)c(CC=C(C)C)c4)c(=O)oc3c2C)OC1(C)C the IC50 (second compound 0.0316 µM) was over 10 µM, the IC50 (second compound 0.1 µM) was over 10 µM and the IC50 (second compound 0.316 µM) was over 10 µM. It also gave an IC50 (second compound 1 µM) of over 10 µM, an IC50 (second compound 3.16 µM) of over 10 µM and an IC50 (second compound 10 µM) of over 10 µM. It also gave a viability, T/C [1] of 105%, a viability, T/C [2] of 104% and a viability, T/C [3] of 103%. For the same molecule, the viability, T/C [4] was 107%, the viability, T/C [5] was 88.5% and the viability, T/C [6] was 102%. For the same molecule, the viability, T/C [7] was 94.4%, the viability, T/C [8] was 88.7% and the viability, T/C [9] was 79.5%. It also gave a viability, T/C [10] of 110%, a viability, T/C [11] of 104% and a viability, T/C [12] of 77%. For the same molecule, the viability, T/C [13] was 96.1%, the viability, T/C [14] was 110% and the viability, T/C [15] was 102%. The viability, T/C [16] was 98.2%, the viability, T/C [17] was 100% and the viability, T/C [18] was 74.9%. It also gave a viability, T/C [19] of 101%, a viability, T/C [20] of 108% and a viability, T/C [21] of 81.3%. It also gave a viability, T/C [22] of 109%, a viability, T/C [23] of 99.2% and a viability, T/C [24] of 93.3%. For the same molecule, the viability, T/C [25] was 98.1%, the viability, T/C [26] was 116% and the viability, T/C [27] was 126%. For the same molecule, the viability, T/C [28] was 99.3%, the viability, T/C [29] was 111% and the viability, T/C [30] was 71.4%. The viability, T/C [31] was 104%, the viability, T/C [32] was 73% and the viability, T/C [33] was 118%. The viability, T/C [34] was 97.4%, the viability, T/C [35] was 82.2% and the viability, T/C [36] was 99.8%.
`CC1COCCN1c1cc(-c2ccnn2C)c2ccnc(-c3ccn[nH]3)c2n1` (stereo unspecified) + COC1C(OC(N)=O)C(O)C(Oc2ccc3c(O)c(NC(=O)c4ccc(O)c(CC=C(C)C)c4)c(=O)oc3c2C)OC1(C)C showed an IC50 (second compound 0.0316 µM) of 0.209 µM, an IC50 (second compound 0.1 µM) of 0.282 µM and an IC50 (second compound 0.316 µM) of 0.157 µM. The IC50 (second compound 1 µM) was 0.257 µM, the IC50 (second compound 3.16 µM) was 0.17 µM and the IC50 (second compound 10 µM) was 0.311 µM. For the same molecule, the viability, T/C [1] was 89.2%, the viability, T/C [2] was 66.2% and the viability, T/C [3] was 40.3%. For the same molecule, the viability, T/C [4] was 35.8%, the viability, T/C [5] was 39.2% and the viability, T/C [6] was 48.6%. For the same molecule, the viability, T/C [7] was 80.3%, the viability, T/C [8] was 77.6% and the viability, T/C [9] was 47.2%. For the same molecule, the viability, T/C [10] was 30.7%, the viability, T/C [11] was 41.6% and the viability, T/C [12] was 52.8%. The viability, T/C [13] was 71.9%, the viability, T/C [14] was 55.7% and the viability, T/C [15] was 41.2%. It also gave a viability, T/C [16] of 37.1%, a viability, T/C [17] of 34.2% and a viability, T/C [18] of 51.7%. The viability, T/C [19] was 58.1%, the viability, T/C [20] was 73.3% and the viability, T/C [21] was 46.4%. It also gave a viability, T/C [22] of 33.6%, a viability, T/C [23] of 56.2% and a viability, T/C [24] of 50%. The viability, T/C [25] was 76.4%, the viability, T/C [26] was 57.5% and the viability, T/C [27] was 40.6%. It also gave a viability, T/C [28] of 37%, a viability, T/C [29] of 38% and a viability, T/C [30] of 48.7%. The viability, T/C [31] was 65.2%, the viability, T/C [32] was 63.2% and the viability, T/C [33] was 50.1%. For the same molecule, the viability, T/C [34] was 39.2%, the viability, T/C [35] was 49.1% and the viability, T/C [36] was 50.3%.
